# Literature values in publication PMC7855644 (Journal of pharmaceutical sciences, 2020).
# Where no end group is shown, it is not given here.
# System: blood brain barrier
substance,measurement,value
TFFYGGSRGRRNNFRTEEY-NH2 [Peptide A7],In vivo transcytosis,lack of in vivo transcytosis
